US10654875B2, “Cell-penetrating, guanidinium-rich oligophosphotriesters for drug and probe delivery” (The Board of Trustees of the Leland Stanford Junior …, priority 2015, dated 2020)

Legend:
[1] = system: OVCA-429T (resistant) ovarian cancer cells; assay: MTT toxicity assay of PTX and PTX-HexPhos conjugate; format: cell-based, human; conditions: for Resistance Factor: ratio of EC50 in OVCA-429T and OVCA-429 cells
Method: The in vitro efficacy of PTX-HexPhos conjugate 16 was compared to free PTX in both wild-type and PTX-resistant ovarian cancer cells engineered to have high levels of Pgp up-regulation. OVCA-429 (wild-type) and OVCA-429T (resistant) cells were treated with free PTX (14) or the HexPhos conjugate 16 for 20 minutes in PBS, then washed and incubated for 3 days. After this time, cellular viability was assessed using a standard MTT assay to generate an EC50 value (the concentration at which overall cellular viability was half that of untreated cells) for each condition. […] The efficacy of these compounds can be expressed in terms of a “resistance factor” for free PTX and the HexPhos-paclitaxel conjugate 16, defined as the EC50 in resistant cells/the EC50 in wild-type cells.
MTT Toxicity Assays. The cytotoxicity of HexPhos oligomers, PTX alone, and PTX-HexPhos conjugate (16) were assessed by a standard MTT percent viability assay. Adherent cells (HeLa for oligomers alone, OVCA-429 or OVCA-429T for PTX and PTX-HexPhos conjugate) were plated at 5,000 cells/well in 96 well plates and allowed to incubate at 37° C. for 12-24 hours to adhere. Cells were washed with serum-free DMEM prior to treatment. In a second 96-well plate, compounds were serially diluted over a range of 200 μM to 400 nM, with two-fold dilutions between each well. For PTX conditions, a range of 20 μM to 40 nM was used. Each compound was tested in triplicate. […] Second plate was transferred to the plate containing cells, and incubated at 37° C. for 10 minutes, followed washing and replacement with 150 μL fresh serum-containing DMEM. Cells were incubated for an additional 72 hours at 37° C., after which time cellular viability was assayed by adding μ10 L of 3-(4,5-dimethylthiazol-2-yl)-2,5-diphenyltetrazolium bromide (MTT) solution (15 mg in 3 mL DMEM). Incubated for 2 hours at 37° C. […] Read absorbance on a plate reader at 570 and 690 nm. Subtracted absorbance at 570 from absorbance at 690 and normalized to wells with no cells as a minimum, and untreated cells as a maximum to calculate % viability.

[2] = system: OVCA-429 (wild-type) ovarian cancer cells; assay: as above; format: cell-based, human; conditions: wash, 72 hours drug-free media, concentrations based on paclitaxel content
Method: OVCA-429 (wild-type) and OVCA-429T (resistant) cells were treated with free PTX (14) or the HexPhos conjugate 16 for 20 minutes in PBS, then washed and incubated for 3 days. After this time, cellular viability was assessed using a standard MTT assay to generate an EC50 value (the concentration at which overall cellular viability was half that of untreated cells) for each condition. […] The efficacy of these compounds can be expressed in terms of a “resistance factor” for free PTX and the HexPhos-paclitaxel conjugate 16, defined as the EC50 in resistant cells/the EC50 in wild-type cells.
MTT Toxicity Assays. The cytotoxicity of HexPhos oligomers, PTX alone, and PTX-HexPhos conjugate (16) were assessed by a standard MTT percent viability assay. Adherent cells (HeLa for oligomers alone, OVCA-429 or OVCA-429T for PTX and PTX-HexPhos conjugate) were plated at 5,000 cells/well in 96 well plates and allowed to incubate at 37° C. for 12-24 hours to adhere. Cells were washed with serum-free DMEM prior to treatment. In a second 96-well plate, compounds were serially diluted over a range of 200 μM to 400 nM, with two-fold dilutions between each well. […] Read absorbance on a plate reader at 570 and 690 nm. Subtracted absorbance at 570 from absorbance at 690 and normalized to wells with no cells as a minimum, and untreated cells as a maximum to calculate % viability.

HeLa cells [3] = conditions: without attachment to a transporter, previously shown; cited from earlier work
HeLa cells [4] = assay: Uptake of maleimide conjugates by flow cytometry; conditions: 10 μM, 10 minutes
Method: (FIG. 4A) Delivery of FL-maleimide to HeLa cells by click-coupling to thiol-initiated HexPhos oligomer 8. Maleimide control and HexPhos8 conjugate (11 and 12 respectively) were formed by reaction of 10 with the corresponding thiol for 2 hours at room temperature in PBS. The resulting compounds were exposed to HeLa cells at 10 μM final concentration for 10 minutes before determining uptake by flow cytometry. Data shown is the average fluorescence of 10,000 events measured.
To explore this strategy, deprotected thiol-initiated HexPhos 8-mer (7) was mixed with fluorescein (FL) maleimide (10) in PBS at room temperature for 2 hours to effect a Michael addition and uptake of the resulting conjugate was determined by flow cytometry (FIG. 4, panel A).
HeLa cells were plated at 40,000 cells/well in 24-well plates and incubated at 37° C. for 12-24 hours to adhere. Before treatment, a 1:1 molar ratio of thiol-initiated HexPhos oligomer (7) and FL-maleimide (10, Molecular Probes) was incubated for 2 hours in PBS (pH 7.4) at a final concentration of 4 mM. […] After removal of the supernatant, cells were resuspended in 125 μL of PBS and transferred to FACS tubes and read on a flow cytometry analyzer for the presence of fluorescein. Results were analyzed by FlowJo software. Data presented is the mean fluorescence from 10,000 cells analyzed.

For `CC(=O)O[C@H]1C(=O)[C@@]2(C)[C@H]([C@H](OC(=O)c3ccccc3)[C@]3(O)C[C@H](OC(=O)[C@H](O)[C@@H](NC(=O)c4ccccc4)c4ccccc4)C(C)=C1C3(C)C)[C@]1(OC(C)=O)CO[C@@H]1C[C@@H]2O` [PTX Alone (14), paclitaxel], the EC50 ([1]; Homo sapiens, treated 20 minutes, wash, 72 hours drug-free media, MTT, assay limit 20 μM) was over 20 µM, the “Resistance Factor” value [1] was over 400 and the “Resistance Factor” value ([1]; listed as 14) was at least 400. For the same compound, the EC50 ([2]; Homo sapiens, OVCA429, treated 20 minutes) was 0.051 ± 0.037 µM and the “EC50 (μM) OVCA-429 (Wild-type)” value ([2]; treated 20 minutes) was “highly cytotoxic”.
For `CN(C)c1cccc2c(S(=O)(=O)NCCO)cccc12` [Compound 4, 5-(dimethylamino)-N-(2-hydroxyethyl)naphthalene-1-sulfonamide], the “cell entry of probe alone” value (HeLa cells [3]) is listed as “not to enter cells”.
In the case of `O=C1OC2(c3ccc(O)cc3Oc3cc(O)ccc32)c2ccc(N3C(=O)C=CC3=O)cc21` [Compound 10, fluorescein (FL) maleimide], the “FL fluorescence of cells treated with controls” value (HeLa cells [4]) is reported as “little FL fluorescence”.
